Each structure is given as a SMILES string.

Our source for the IC50 values is US20210355107A1, “MULTI-SUBSTITUTED PYRIDONE DERIVATIVES AND MEDICAL USE THEREOF” (Beijing Yuezhikangtai Biomedicines Co., Ltd., priority 2018, published 2021).

This assay addresses T1, kinase Axl (Homo sapiens, UniProt P30530).
T1 construct: purchased Carna 08-107
T1 sequence (P30530 473-894 limits assumed): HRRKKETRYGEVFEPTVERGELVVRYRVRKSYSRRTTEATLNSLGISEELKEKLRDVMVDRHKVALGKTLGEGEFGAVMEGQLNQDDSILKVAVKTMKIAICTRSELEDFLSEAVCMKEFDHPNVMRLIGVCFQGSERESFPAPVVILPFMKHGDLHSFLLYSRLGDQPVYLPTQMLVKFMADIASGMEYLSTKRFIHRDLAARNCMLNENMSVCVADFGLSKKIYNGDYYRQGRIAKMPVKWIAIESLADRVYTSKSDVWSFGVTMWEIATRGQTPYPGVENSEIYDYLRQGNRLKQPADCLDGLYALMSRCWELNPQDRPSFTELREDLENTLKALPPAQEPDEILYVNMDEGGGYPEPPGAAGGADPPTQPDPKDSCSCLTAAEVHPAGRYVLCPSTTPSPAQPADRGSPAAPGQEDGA
Kind of assay: Mobility shift assay, inhibitory activity against kinase Axl. In kind it is biochemical. The conditions noted are these: ATP at Km (81 μM), average of two independent experiments.
As for `COc1cc2nccc(Oc3ccc(NC(=O)c4cn(C)c(C#N)c(-c5ccc(F)cc5)c4=O)cc3F)c2cc1OC` [Example 21, 6-cyano-N-(4-((6,7-dimethoxyquinolin-4-yl)oxy)-3-fluoro-phenyl)-5-(4-fluorophenyl)-1-methyl-4-oxo-1,4-dihydropyridine-3-carboxamide], the IC50 came out at 3.2 nM. For `CC(C)n1cc(C(=O)Nc2cc(F)c(-c3cc(-c4cnn(C)c4)cnc3N)cc2F)c(=O)c(-c2ccc(F)cc2)c1C#N` [Example 6, N-(4-(2-amino-5-(1-methyl-1H-pyrazol-4-yl)pyridin-3-yl)-2,5-difluorophenyl)-6-cyano-5-(4-fluorophenyl)-1-isopropyl-4-oxo-1,4-dihydropyridine-3-carboxamide] the value was 2 nM; for `CCn1cc(-c2cnc(N)c(-c3ccc(NC(=O)c4cn(C5CC5)c(C#N)c(-c5ccc(F)cc5)c4=O)cc3F)c2)cn1` [Example 10, N-(4-(2-amino-5-(1-ethyl-1H-pyrazol-4-yl)pyridin-3-yl)-3-fluorophenyl)-6-cyano-5-(4-fluorophenyl)-1-cyclopropyl-4-oxo-1,4-dihydropyridine-3-carboxamide], 2.8 nM. For `CC(C)n1cc(C(=O)Nc2ccc(-c3cc(-c4cnn(C5CCNCC5)c4)cnc3N)c(F)c2)c(=O)c(-c2ccc(F)cc2)c1C#N` [Example 2, N-(4-(2-amino-5-(1-(piperidin-4-yl)-1H-pyrazol-4-yl)pyridin-3-yl)-3-fluorophenyl)-6-cyano-5-(4-fluorophenyl)-1-isopropyl-4-oxo-1,4-dihydropyridine-3-carboxamide] the value was 0.46 nM; for `CCn1cc(-c2cnc(N)c(-c3ccc(NC(=O)c4cn(C(C)C)c(C#N)c(-c5ccc(F)cc5)c4=O)cc3F)c2)cn1` [Example 3, N-(4-(2-amino-5-(1-ethyl-1H-pyrazol-4-yl)pyridin-3-yl)-3-fluoro-phenyl)-6-cyano-5-(4-fluorophenyl)-1-isopropyl-4-oxo-1,4-dihydropyridine-3-carboxamide], 2.7 nM; for `CC(C)n1cc(C(=O)Nc2ccc(-c3cc(-c4cnn(C)c4)cnc3N)c(F)c2)c(=O)c(-c2ccc(F)cc2)c1C#N` [Example 4, N-(4-(2-amino-5-(1-methyl-1H-pyrazol-4-yl)pyridin-3-yl)-3-fluorophenyl)-6-cyano-5-(4-fluorophenyl)-1-isopropyl-4-oxo-1,4-dihydropyridine-3-carboxamide], 0.28 nM.
